Activity calls are given as the source filed them. The calls are words filed in the database; no cut-off is given here.

Data set [1] addresses T1, Lanosterol 14-alpha demethylase (Candida albicans (strain SC5314 / ATCC MYA-2876) (Yeast), UniProt P10613). Put plainly: Inhibition of CYP51 in azole-resistant Candida albicans 0304103 assessed as obtusifoliol level at 0.5 ug/ml after 24 hrs by GC-MS analysis relative to control. Also on record: scale not given: the % may be the effect or the level left.
Data set [2] concerns Candida albicans. Put plainly: Inhibition of HDAC in azole-resistant Candida albicans 0304103 assessed as reduction in MDR1 gene expression at 32 ug/ml after 16 hrs by SYBR Green-1 dye based RT-PCR analysis. The note with it: 304103.
The target in data set [3] is T2, Protein deacetylase HDAC6 (Homo sapiens, UniProt Q9UBN7).
T2 sequence (Q9UBN7 whole entry): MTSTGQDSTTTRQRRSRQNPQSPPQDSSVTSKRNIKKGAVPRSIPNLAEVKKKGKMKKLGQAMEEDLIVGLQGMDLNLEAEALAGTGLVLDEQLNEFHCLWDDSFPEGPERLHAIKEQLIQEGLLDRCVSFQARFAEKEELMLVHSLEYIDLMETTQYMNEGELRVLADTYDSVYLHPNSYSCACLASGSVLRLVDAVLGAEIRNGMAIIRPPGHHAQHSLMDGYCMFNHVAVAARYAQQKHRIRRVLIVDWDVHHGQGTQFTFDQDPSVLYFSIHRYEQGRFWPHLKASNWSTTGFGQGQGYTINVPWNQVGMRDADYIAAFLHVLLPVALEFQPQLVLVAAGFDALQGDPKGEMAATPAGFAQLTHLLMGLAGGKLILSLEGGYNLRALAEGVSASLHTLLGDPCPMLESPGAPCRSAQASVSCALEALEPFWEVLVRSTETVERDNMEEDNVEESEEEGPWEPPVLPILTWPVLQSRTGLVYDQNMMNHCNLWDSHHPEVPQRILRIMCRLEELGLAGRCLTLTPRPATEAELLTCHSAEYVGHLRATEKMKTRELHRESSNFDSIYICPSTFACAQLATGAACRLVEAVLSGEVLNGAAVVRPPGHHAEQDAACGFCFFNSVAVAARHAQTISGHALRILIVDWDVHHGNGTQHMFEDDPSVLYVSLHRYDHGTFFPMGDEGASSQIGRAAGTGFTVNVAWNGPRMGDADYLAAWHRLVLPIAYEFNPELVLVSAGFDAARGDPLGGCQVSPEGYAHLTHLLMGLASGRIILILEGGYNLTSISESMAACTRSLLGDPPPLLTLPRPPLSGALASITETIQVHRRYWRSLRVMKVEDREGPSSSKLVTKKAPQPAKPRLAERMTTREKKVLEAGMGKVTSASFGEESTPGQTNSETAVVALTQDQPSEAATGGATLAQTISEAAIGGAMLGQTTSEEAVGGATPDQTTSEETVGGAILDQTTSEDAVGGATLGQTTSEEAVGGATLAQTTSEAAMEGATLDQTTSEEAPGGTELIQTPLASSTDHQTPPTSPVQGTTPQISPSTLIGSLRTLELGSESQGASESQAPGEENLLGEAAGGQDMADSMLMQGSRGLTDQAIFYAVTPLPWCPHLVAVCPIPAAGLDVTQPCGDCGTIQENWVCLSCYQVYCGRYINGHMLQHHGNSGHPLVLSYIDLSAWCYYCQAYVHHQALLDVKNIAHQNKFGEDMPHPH
Put plainly: Inhibition of HDAC6 (unknown origin) after 30 mins by fluorescence based assay.

The nature of data set [4]: Selectivity index, ratio of IC50 for human A549 cells to MIC80 for azole-resistant Candida tropicalis 5008. In kind it is toxicity.
The target in data set [5] is T1, Lanosterol 14-alpha demethylase. Put plainly: Inhibition of CYP51 in azole-resistant Candida albicans 0304103 assessed as lanosterol level at 0.5 ug/ml after 24 hrs by GC-MS analysis (reference value: 4.15%). Also on record: scale not given: the % may be the effect or the level left.
For data set [6], the system named is Candida albicans. Put plainly: Fungistatic activity agaisnt Candida albicans 0304103 at 16 ug/ml preincubated for up to 24 hrs followed by replating on SDA plate and measured after 48 hrs by time kill assay. It counts as functional, organism-based.
Data set [7] concerns the target T1, Lanosterol 14-alpha demethylase. Put plainly: Inhibition of CYP51 in azole-resistant Candida albicans 0304103 assessed as reduction in ERG11 gene expression at 32 ug/ml after 16 hrs by SYBR Green-1 dye based RT-PCR analysis. Also on record: species or system 304103.
Data set [8] has the same target. Briefly: Inhibition of CYP51 in azole-resistant Candida albicans 0304103 assessed as eburicol level at 0.5 ug/ml after 24 hrs by GC-MS analysis relative to control. The arrangement: scale not given: the % may be the effect or the level left.
The nature of data set [9]: Selectivity index, ratio of IC50 for human A549 cells to MIC80 for azole-resistant Candida albicans 4108. In kind it is toxicity.
The test system of data set [10] is Candida albicans. Put plainly: Antifungal activity against Candida albicans 0304103 assessed as inhibition of yeast to hypha morphological transition at 1 ug/ml after 4 hrs by differential interference contrast microscopic analysis relative to control. The note with it: Candida albicans, 0304103, 4 h. It counts as functional.
Data set [11] deals with Candida albicans. Briefly: Antifungal activity against Candida albicans 0304103 assessed as inhibition of yeast to hypha morphological transition at 8 ug/ml after 4 hrs by differential interference contrast microscopic analysis relative to control. It counts as functional. The note with it: Candida albicans, 0304103, 4 h.

T1 sequence (P10613 whole entry): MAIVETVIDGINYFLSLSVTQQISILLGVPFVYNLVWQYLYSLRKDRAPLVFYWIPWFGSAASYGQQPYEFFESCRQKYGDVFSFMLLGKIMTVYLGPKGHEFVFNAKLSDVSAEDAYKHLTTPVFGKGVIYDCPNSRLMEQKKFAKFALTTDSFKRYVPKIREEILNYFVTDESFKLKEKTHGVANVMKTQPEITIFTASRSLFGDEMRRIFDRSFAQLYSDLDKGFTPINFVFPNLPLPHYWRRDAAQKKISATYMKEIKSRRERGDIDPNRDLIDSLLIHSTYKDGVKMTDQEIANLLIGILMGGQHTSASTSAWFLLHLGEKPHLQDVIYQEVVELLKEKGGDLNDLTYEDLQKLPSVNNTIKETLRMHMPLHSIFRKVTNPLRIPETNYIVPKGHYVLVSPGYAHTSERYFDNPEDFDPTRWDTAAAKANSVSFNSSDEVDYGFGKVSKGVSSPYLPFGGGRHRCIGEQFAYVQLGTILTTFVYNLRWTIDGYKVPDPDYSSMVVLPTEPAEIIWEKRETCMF

Regarding `CN(Cc1ccc(OCCCOc2ccc(CC(=O)NO)cc2)cc1)CC(O)(Cn1cncn1)c1ccc(F)cc1F` (racemic), the Activity in [1] is listed as 7.59%; in [5] it was 8.57%; in data set [8], 65.4%. Besides, the inhibition result in data set [2] is “Active”. Moreover, the midpoint of inhibition in data set [3], the IC50, lay at 600 nM. The selectivity ratio in data set [4] and in data set [9] was 2 to 16 in each case. For the same compound, in data set [6], the result was Active. Also, in data set [7], the “inhibition (INH)” value was “Active”. Further, the inhibition at 1 µg/mL in [10] turned out to be 100%.
In [3], `CN(Cc1ccc(-n2cnn(CCCCc3ccc(C(=O)NO)cc3)c2=O)cc1)CC(O)(Cn1cncn1)c1ccc(F)cc1F` (racemic) came in with an IC50 of 120 nM. Also, the selectivity ratio in data set [4] and in data set [9] was 2 to 16 throughout. Besides, the Activity worked out at 25.29% in data set [5] and 13.22% in data set [8]. The inhibition at 8 µg/mL in [11] is 100%. The “inhibition (INH)” value in [7] is listed as “Active”.

What is called inhibition is how much of the control response was suppressed. As a reminder, the IC50 is the point on the concentration scale where inhibition reaches its midpoint.
